These results are taken from the NIST ThermoML archive (doi:10.1016/j.jct.2014.03.027).

± gives the expanded uncertainty stated by the source.

The nature of this series: molar enthalpy of vaporization or sublimation. To be noted: 298.15 K, Static calorimetry.

On to `COc1ccccc1C(C)=O` [2'-methoxyacetophenone], for which the molar enthalpy (Liquid) was determined as 15.9 ± 0.287 kcal/mol. Take `COc1cccc(C(C)=O)c1` [3'-methoxyacetophenone]: the molar enthalpy (Liquid) was found to be 16.2 ± 0.287 kcal/mol. Turning to `COc1ccc(C(C)=O)cc1` [4'-methoxyacetophenone], the molar enthalpy (Crystal) worked out at 21 ± 0.335 kcal/mol.
